Source: ChEMBL document CHEMBL5634141 (Eur J Med Chem, 2023)
Active and inactive are the calls of the source. The rule behind the calls is not given here.

Experiments:
[1] = Inhibition of PI3K-AKT-mTOR pathway in human MIA PaCa-2 cells assessed as decrease in […] phosphorylation at 100 nM incubated for 6 to 8 days by Western blot analysis; format: cell-based; conditions: time 6-8 day
[2] = Cytotoxicity against HEK293T cells assessed as inhibition of cell growth incubated for 72 hrs by CCK-8 assay; format: toxicity, cell-based, HEK-293T; conditions: human
[3] = Inhibition of PI3K-AKT-mTOR pathway in human NCI-H358 cells assessed as decrease in […] phosphorylation at 100 nM incubated for 6 to 8 days by Western blot analysis; format: cell-based; conditions: time 6-8 day
MIA PaCa-2 [4] = test: Antiproliferative activity against human MIA PaCa-2 cells expressing KRAS G12C mutant assessed as inhibition of cell growth incubated for 72 hrs by CCK-8 assay; format: functional, cell-based; conditions: MIA PaCa-2, 72 h
[5] = Half life in ICR mouse at 2 mg/kg, iv measured after 24 hrs by LC-MS/MS analysis; format: ADME, organism-based; conditions: in vivo
[6] = Cmax in ICR mouse at 30 mg/kg, ip measured after 24 hrs by LC-MS/MS analysis; format: ADME, organism-based; conditions: in vivo
[7] = Cmax in ICR mouse at 2 mg/kg, iv measured after 24 hrs by LC-MS/MS analysis; format: ADME, organism-based; conditions: in vivo
[8] = Tmax in ICR mouse at 30 mg/kg, ip measured after 24 hrs by LC-MS/MS analysis; format: ADME, organism-based; conditions: in vivo
NCI-H358 [9] = test: Inhibition of RAF-MEK-ERK pathway in human NCI-H358 cells assessed as decrease in ERK phosphorylation at 100 nM incubated for 6 to 8 days by Western blot analysis; format: cell-based; conditions: time 6-8 day
[10] = AUC (0 to t) in ICR mouse at 2 mg/kg, iv measured after 24 hrs by LC-MS/MS analysis; format: ADME, organism-based; conditions: in vivo
MIA PaCa-2 [11] = test: Inhibition of RAF-MEK-ERK pathway in human MIA PaCa-2 cells assessed as decrease in ERK phosphorylation at 100 nM incubated for 6 to 8 days by Western blot analysis; format: cell-based; conditions: time 6-8 day
[12] = Half life in ICR mouse at 30 mg/kg, ip measured after 24 hrs by LC-MS/MS analysis; format: ADME, organism-based; conditions: in vivo
[13] = Clearance in ICR mouse at 2 mg/kg, iv measured after 24 hrs by LC-MS/MS analysis; format: ADME, organism-based; conditions: in vivo
[14] = AUC (0 to infinity) in ICR mouse at 30 mg/kg, ip measured after 24 hrs by LC-MS/MS analysis; format: ADME, organism-based; conditions: in vivo
HepG2 = test: Antiproliferative activity against human HepG2 cells expressing KRAS assessed as inhibition of cell growth incubated for 72 hrs by CCK-8 assay; format: functional, cell-based; conditions: HepG2, 72 h
NCI-H358 [15] = test: Antiproliferative activity against human NCI-H358 cells expressing KRAS G12C mutant assessed as inhibition of cell growth incubated for 72 hrs by CCK-8 assay; format: functional, cell-based; conditions: NCI-H358, 72 h
[16] = AUC (0 to infinity) in ICR mouse at 2 mg/kg, iv measured after 24 hrs by LC-MS/MS analysis; format: ADME, organism-based; conditions: in vivo
ASPC1 = test: Antiproliferative activity against human ASPC1 cells expressing KRAS G12D mutant assessed as inhibition of cell growth incubated for 72 hrs by CCK-8 assay; format: functional, cell-based; conditions: ASPC1, 72 h
[17] = Volume of distribution at steady state in ICR mouse at 2 mg/kg, iv measured after 24 hrs by LC-MS/MS analysis; format: ADME, organism-based; conditions: in vivo
[18] = AUC (0 to t) in ICR mouse at 30 mg/kg, ip measured after 24 hrs by LC-MS/MS analysis; format: ADME, organism-based; conditions: in vivo
NCI-H23 [19] = test: Antiproliferative activity against human NCI-H23 cells expressing KRAS G12C mutant assessed as relative cell viability at 50 nM incubated for 72 hrs by CCK-8 assay; format: functional; conditions: read-out: Activity
Calu-1 [20] = test: Antiproliferative activity against human Calu-1 cells expressing KRAS G12C mutant assessed as relative cell viability at 50 nM incubated for 72 hrs by CCK-8 assay; format: functional; conditions: read-out: Activity
MIA PaCa-2 [21] = test: Antiproliferative activity against human MIA PaCa-2 cells expressing KRAS G12C mutant assessed as relative cell viability at 50 nM incubated for 72 hrs by CCK-8 assay; format: functional; conditions: read-out: Activity
SW837 [22] = test: Antiproliferative activity against human SW837 cells expressing KRAS G12C mutant assessed as relative cell viability at 50 nM incubated for 72 hrs by CCK-8 assay; format: functional; conditions: read-out: Activity
NCI-H358 [23] = test: Antiproliferative activity against human NCI-H358 cells expressing KRAS G12C mutant assessed as relative cell viability at 50 nM incubated for 72 hrs by CCK-8 assay; format: functional; conditions: read-out: Activity
NCI-H23 [24] = test: Antiproliferative activity against human NCI-H23 cells expressing KRAS G12C mutant assessed as relative cell viability at 100 nM incubated for 72 hrs by CCK-8 assay; format: functional; conditions: read-out: Activity
MIA PaCa-2 [25] = test: Antiproliferative activity against human MIA PaCa-2 cells expressing KRAS G12C mutant assessed as relative cell viability at 100 nM incubated for 72 hrs by CCK-8 assay; format: functional; conditions: read-out: Activity
Calu-1 [26] = test: Antiproliferative activity against human Calu-1 cells expressing KRAS G12C mutant assessed as relative cell viability at 100 nM incubated for 72 hrs by CCK-8 assay; format: functional; conditions: read-out: Activity
SW837 [27] = test: Antiproliferative activity against human SW837 cells expressing KRAS G12C mutant assessed as relative cell viability at 100 nM incubated for 72 hrs by CCK-8 assay; format: functional; conditions: read-out: Activity
NCI-H358 [28] = test: Antiproliferative activity against human NCI-H358 cells expressing KRAS G12C mutant assessed as relative cell viability at 100 nM incubated for 72 hrs by CCK-8 assay; format: functional; conditions: read-out: Activity
[29] = system: von Hippel-Lindau disease tumor suppressor/GTPase KRas (Homo sapiens), P01116+P40337 [G12C]; test: PROTAC activity at VHL/KRAS G12C mutant in human MIA PaCa-2 cells assessed as induction of protein degradation at 10 to 1000 nM incubated for 48 hrs by Western blotting analysis; format: cell-based; conditions: dose 10-1000 nM
[30] = system: von Hippel-Lindau disease tumor suppressor/GTPase KRas (Homo sapiens), P01116+P40337 [G12C]; test: PROTAC activity at VHL/KRAS G12C mutant in human NCI-H358 cells assessed as induction of protein degradation at 10 to 1000 nM incubated for 48 hrs by Western blotting analysis; format: cell-based; conditions: dose 10-1000 nM

For `C=CC(=O)N1CCN(c2nc(=O)n(-c3c(C)ccnc3C(C)C)c3nc(-c4c(O)cccc4F)c(F)cc23)[C@@H](C)C1` [SOTORASIB], the inhibition [1] was “inactive”, the IC50 at 72 h [2] was greater than 10000 nM and the inhibition [3] was “inactive”. The IC50 (MIA PaCa-2 [4]) was 18 nM, the t1/2 [5] was 15.1 min and the Cmax [6] was 9840 ng/mL. For the same molecule, the Cmax [7] was 863 ng/mL, the Tmax [8] was 15 min and the inhibition (NCI-H358 [9]) was “inactive”. For the same molecule, the AUC(0-t) at 24 h [10] was 311 ng·h/mL, the inhibition (MIA PaCa-2 [11]) was “inactive” and the half-life [12] was 238 min. For the same molecule, the clearance [13] was 110 mL/min/kg, the AUC(0-inf) [14] was 9450 ng·h/mL and the IC50 (HepG2) was greater than 10000 nM. The IC50 (NCI-H358 [15]) was 12 nM, the AUC [16] was 312 ng·h/mL and the IC50 (ASPC1) was greater than 10000 nM. It also gave a Vdss [17] of 1.62 L/kg and an AUC(0-t) at 24 h [18] of 9440 ng·h/mL.

In the case of `Cn1cnc2c(F)c(Nc3ccc(Br)cc3Cl)c(C(=O)NOCCO)cc21` [SELUMETINIB], the viability at 0.05 µM (NCI-H23 [19]) is reported as 0.77%, the viability at 0.05 µM (Calu-1 [20]) is reported as 0.82% and the viability at 0.05 µM (MIA PaCa-2 [21]) is reported as 0.71%. The viability at 0.05 µM (SW837 [22]) was 0.73% and the viability at 0.05 µM (NCI-H358 [23]) was 0.86%.

For `Cc1ccc(NC(=O)c2ccnc(C(F)(F)F)c2)cc1-c1cc(OCCO)nc(N2CCOCC2)c1` [NAPORAFENIB], the viability at 0.1 µM (NCI-H23 [24]) was 0.82%, the viability at 0.1 µM (MIA PaCa-2 [25]) was 0.79% and the viability at 0.1 µM (Calu-1 [26]) was 0.9%. It also gave a viability at 0.1 µM (SW837 [27]) of 0.85% and a viability at 0.1 µM (NCI-H358 [28]) of 0.81%.

With `C=CC(=O)N1CCN(c2nc(=O)n(-c3c(C)ccnc3C(C)C)c3nc(-c4c(F)cccc4OCc4cn(CCCCCC(=O)N[C@H](C(=O)N5C[C@H](O)C[C@H]5C(=O)NCc5ccc(-c6scnc6C)cc5)C(C)(C)C)nn4)c(F)cc23)[C@@H](C)C1` the IC50 at 72 h [2] was greater than 10000 nM, the IC50 (MIA PaCa-2 [4]) was 481 nM and the IC50 (HepG2) was greater than 10000 nM. It also gave an IC50 (NCI-H358 [15]) of 289 nM and an IC50 (ASPC1) greater than 10000 nM.

With `C=CC(=O)N1CCN(c2nc(=O)n(-c3c(C)ccnc3C(C)C)c3nc(-c4c(F)cccc4OCCOCCOCC(=O)Nc4cccc5c4CN(C4CCC(=O)NC4=O)C5=O)c(F)cc23)[C@@H](C)C1` (some centres undefined) the IC50 at 72 h [2] was greater than 10000 nM, the IC50 (MIA PaCa-2 [4]) was 690 nM and the IC50 (HepG2) was greater than 10000 nM. The IC50 (NCI-H358 [15]) was 765 nM and the IC50 (ASPC1) was greater than 10000 nM.

In the case of `C=CC(=O)N1CCN(c2nc(=O)n(-c3c(C)ccnc3C(C)C)c3nc(-c4c(F)cccc4OCc4cn(CC(=O)N[C@H](C(=O)N5C[C@H](O)C[C@H]5C(=O)NCc5ccc(-c6scnc6C)cc5)C(C)(C)C)nn4)c(F)cc23)[C@@H](C)C1`, the IC50 at 72 h [2] is reported as greater than 10000 nM, the IC50 (MIA PaCa-2 [4]) is reported as 529 nM and the IC50 (HepG2) is reported as greater than 10000 nM. The IC50 (NCI-H358 [15]) was 562 nM and the IC50 (ASPC1) was greater than 10000 nM.

With `C=CC(=O)N1CCN(c2nc(=O)n(-c3c(C)ccnc3C(C)C)c3nc(-c4c(F)cccc4OCC4CCN(CCCC(=O)N[C@H](C(=O)N5CC(O)C[C@H]5C(=O)NCc5ccc(-c6scnc6C)cc5)C(C)(C)C)CC4)c(F)cc23)[C@@H](C)C1` (some centres undefined) the IC50 (MIA PaCa-2 [4]) was 278 nM, the IC50 (NCI-H358 [15]) was 588 nM and the Activity [29] was “inactive”. The Activity [30] was “inactive”.

For `C=CC(=O)N1CCN(c2nc(=O)n(-c3c(C)ccnc3C(C)C)c3nc(-c4c(F)cccc4OCCN4CCN(CCCC(=O)N[C@H](C(=O)N5C[C@H](O)C[C@H]5C(=O)NCc5ccc(-c6scnc6C)cc5)C(C)(C)C)CC4)c(F)cc23)[C@@H](C)C1`, the IC50 at 72 h [2] was greater than 10000 nM, the IC50 (MIA PaCa-2 [4]) was 337 nM and the IC50 (HepG2) was greater than 10000 nM. It also gave an IC50 (NCI-H358 [15]) of 233 nM and an IC50 (ASPC1) greater than 10000 nM.
